Assay results from patent publication US20110263526A1, “Nitric Oxide Releasing Prodrugs of Therapeutic Agents” (PIRAMAL LIFE SCIENCES LIMITED, priority 2010, published 2011).
“Also recorded” adds a separate entry of the source.

What was measured:
[1] = system: Salmonella strains TA100, TA98, TA1535, TA1537 and TA102 and Escherichia coli strain WP2 uvrA; experiment: AMES genotoxicity assay (bacterial reverse mutation test), six strains; type: cell-based, Salmonella typhimurium; Escherichia coli; settings: up to 5000 μg/plate (10-5000 μg/plate)
From the text: (§1) AMES test or bacterial reverse mutation test uses five mutant strains (i.e., TA98, TA100, TA1535, TA1537, TA102) of Salmonella typhimurium to test the mutagenicity of chemical substances (Kristien Mortelmans and Errol Zeiger, The Ames Salmonella/microsome mutagenicity assay, Mutation Research 2000, 455, 29-60 and the relevant reference cited therein). These mutants are called his mutants because of their dependence on an external source of histidine to grow. The test also uses one trp mutant strain WP2 uvrA (which needs external supply of tryptophan for its growth) of Escherichia coli (Kristein Mortelmans and Edward S. Riccio, The bacterial tryptophan reverse mutation assay with Escherichia coli WP2, Mutation Research 2000, 455, 61-69 and the relevant references cited therein). If the bacteria are incubated in the presence of a mutagen, a reverse mutation is induced, and the bacteria will grow. However, if the chemical substance is not mutagenic, there will be no reversion and thus no growth. The result is thus obtained in the absence of metabolic activation. Because many chemicals that are poor mutagens become potent mutagens after they have passed through the liver, homogenate of rat liver, called the S9 extract, are added to the bacteria before incubation. The bacteria/S9 mixture is then plated on a medium containing no histidine (use of tryptophan-deficient medium in case of E. coli strain), and the test chemical is placed in the center of the plate. The result is thus obtained in the presence of metabolic activation. A second plate that contains a non-mutagenic solvent as a negative control and a third plate that contains a known mutagen as a positive control are also run simultaneously. All the 3 types of plates (each type of plate, in fact, run simultaneously in triplicate for obtaining statistically significant data) are incubated for 48 hours at 37° C. The above procedure is called the plate incorporation method. The presence of numerous colonies of revertants in the test disk indicates a positive result: that is, the chemical substance is a mutagen (i.e., mutagenic if the increase in revertants is >2 fold for TA98, TA100, TA102 and WP2/uvrA or >3 fold for TA1535 and TA1537). Also, a positive result would be considered reliable when there is a dose-dependent increase in revertants at any two consecutive non-toxic concentrations which can be in the range of 10-5000 μg/plate. The presence of only a few spontaneous revertant colonies indicates a negative result. If a negative or equivocal result is obtained, the pre-incubation method is performed in which the cells are exposed to the test compounds for 30 min before plating. Also, before Ames test is initiated, a toxicity test on the chemical substance is performed using TA100 strain in the concentration range of 10-5000 μg/plate. […] When the test substance is found to be toxic at higher concentration range then the genotoxicity of that material is tested only in the non-toxic lower concentration range.

TA100 = experiment: Ames test: toxicity test using TA100 strain; type: cell-based, Salmonella typhimurium; settings: up to 5000 μg/plate (10-5000 μg/plate)
From the text: as §1

rats = experiment: Ulcerogenic activity (gastric ulcer lesions) in rats; type: in vivo; settings: dose containing 100 mg/kg of naproxen; for Gastric ulcers (Mean ± SEM) (mm^2) @ 100 mg/kg eq. @ 5 hours: overnight fasted rats, sacrificed after 5 h, total area of lesions; for Ulcer development (in words): rats, 5 h
Description: The animals were sacrificed after 5 h of drug administration. The stomachs of the animals treated were separated, perfused with 2% formalin (10 ml), and then a large curvature was excised. The severity of the mucosal damage was assessed on the basis of the size of the observed ulcer lesions in the images captured using a stereomicroscope attached to a digital camera (Stemi 2000, Zeiss, Germany). The Image Pro Plus software (version 5.1) was used to quantify the hemorrhagic/ulcer lesions in pixels and converted into mm^2. The total area of lesions were calculated for each treatment group and the measure of gastric ulcers (Mean±SEM) (mm^2) presented in Table 3.

[2] = system: carrageenan-induced rat paw edema; experiment: Anti-inflammatory activity in carrageenan-induced rat paw edema model; type: in vivo, male Sprague-Dawley rats; settings: for Anti-inflammatory activity (% Inhibition) @ 3 hours / Anti-inflammatory activity (% Inhibition) @ 5 hours: inhibition of paw edema vs control, Mean ± SEM, n = 8; for Anti-inflammatory activity (% Inhibition) @ 3 hours: oral dose containing 5 mg/kg of naproxen in PEG 400, 3 hours after carrageenan; for Anti-inflammatory activity (% Inhibition) @ 5 hours: oral dose containing 5 mg/kg of naproxen in PEG 400, 5 hours after carrageenan
Description: […] […] One hour later, carrageenan (100 μl, 1% w/v) was injected in to their paws. The control group received PEG 400 (1 ml/kg).

Row | SMILES | melting point | Genotoxicity to 6 strains [1] | Toxicity to TA100 (TA100) | further results
1 | CC(=O)Nc1ccc(OC(=O)c2ccc(COC(=O)OC(C)O[N+](=O)[O-])cc2)cc1 (centres unmarked) [HD5-L20-R1, 4-Acetamidophenyl 4-(((1-(nitrooxy)ethoxy)carbonyloxy)methyl)benzoate] | 149 to 152 °C |  |  | 
2 | CCCCc1nc(Cl)c(COC(=O)c2ccc(COC(=O)OC(C)O[N+](=O)[O-])cc2)n1Cc1ccc(-c2ccccc2-c2nnn[nH]2)cc1 (centres unmarked) [HD6-L20-R1, (1-((2′-(1H-Tetrazol-5-yl)biphenyl-4-yl)methyl)-2-butyl-4-chloro-1H-imidazol-5-yl)methyl 4-(((1-(nitrooxy)ethoxy)carbonyloxy)methyl)benzoate] | 107 to 109 °C |  |  | 
3 | COc1ccc2cc([C@H](C)C(=O)OCCSSCCOC(=O)OC(C)O[N+](=O)[O-])ccc2c1 (stereo partly drawn) [I-CD1-L1-R1, (2S)-2-((2-((1-(nitrooxy)ethoxy)carbonyloxy)ethyl)disulfanyl)ethyl 2-(6-methoxynaphthalen-2-yl)propanoate] |  | non-mutagenic in all the aforementioned six bacterial strains; also recorded: Non-genotoxic | non-toxic to TA100 | 
4 | COc1ccc2cc([C@H](C)C(=O)OC/C=C\COC(=O)OC(C)O[N+](=O)[O-])ccc2c1 (stereo partly drawn) [I-CD1-L2-R1, (2S)-((Z)-4-((1-(nitrooxy)ethoxy)carbonyloxy)but-2-enyl) 2-(6-methoxynaphthalen-2-yl)propanoate] | 76 to 78 °C | non-mutagenic in all the aforementioned six bacterial strains; also recorded: Non-genotoxic | non-toxic to TA100 | Gastric ulcers (Mean ± SEM) (mm^2) @ 100 mg/kg eq. @ 5 hours (rats): 0 ± 0 mm^2; Ulcer development (in words) (rats): none of the animals treated with the nitric oxide releasing prodrug of naproxen, I-CD1-L2-R1 showed any signs of development of ulcers; Anti-inflammatory activity (in words) ([2]; carrageenan-induced rat paw edema model, dose containing 5 mg/kg of naproxen): anti-inflammatory activity comparable to that of naproxen; Anti-inflammatory activity (% Inhibition) @ 3 hours [2]: 54.27 ± 5.31%; Anti-inflammatory activity (% Inhibition) @ 5 hours [2]: 36.61 ± 8.92%
5 | COc1ccc2cc([C@H](C)C(=O)OCCCOC(=O)OC(C)O[N+](=O)[O-])ccc2c1 (stereo partly drawn) [I-CD1-L4-R1, (2S)-3-((1-(nitrooxy)ethoxy)carbonyloxy)propyl 2-(6-methoxynaphthalen-2-yl) propanoate] |  | non-mutagenic in all the aforementioned six bacterial strains; also recorded: Non-genotoxic | non-toxic to TA100 | 
6 | COc1ccc2cc([C@H](C)C(=O)OCC[S+]([O-])CCOC(=O)OC(C)O[N+](=O)[O-])ccc2c1 (stereo partly drawn) [I-CD1-L16-R1, (2S)-2-(2-((1-(nitrooxy)ethoxy)carbonyloxy)ethylsulfinyl)ethyl 2-(6-methoxynaphthalen-2-yl)propanoate] | 112 to 115 °C | non-mutagenic in all the aforementioned six bacterial strains; also recorded: Non-genotoxic | non-toxic to TA100 | 
7 | COc1ccc2cc([C@H](C)C(=O)OCCS(=O)(=O)CCOC(=O)OC(C)O[N+](=O)[O-])ccc2c1 (stereo partly drawn) [I-CD1-L17-R1, (2S)-2-(2-((1-(nitrooxy)ethoxy)carbonyloxy)ethylsulfonyl)ethyl 2-(6-methoxynaphthalen-2-yl)propanoate] | 98 to 100 °C | Non-mutagenic with TA 1535 | Non-toxic | 
8 | COc1ccc2cc([C@H](C)C(=O)OCCCSCCCOC(=O)OC(C)O[N+](=O)[O-])ccc2c1 (stereo partly drawn) [I-CD1-L18-R1, (2S)-3-(3-((1-(nitrooxy)ethoxy)carbonyloxy)propylthio)propyl 2-(6-methoxynaphthalen-2-yl)propanoate] |  | non-mutagenic in all the aforementioned six bacterial strains; also recorded: Non-genotoxic | non-toxic to TA100 | 
9 | CC(OC(=O)OC/C=C\COC(=O)C[C@H](O)C[C@H](O)CCn1c(-c2ccc(F)cc2)c(-c2ccccc2)c(C(=O)Nc2ccccc2)c1C(C)C)O[N+](=O)[O-] (stereo partly drawn) [I-CD8-L2-R1, (3R,5R)-((Z)-4-((1-(nitrooxy)ethoxy)carbonyloxy)but-2-enyl) 7-(2-(4-fluorophenyl)-5-isopropyl-3-phenyl-4-(phenylcarbamoyl)-1H-pyrrol-1-yl)-3,5-dihydroxyheptanoate] | 56 to 58 °C |  |  | 
10 | CCCC1O[C@@H]2C[C@H]3[C@@H]4CCC5=CC(=O)C=C[C@]5(C)[C@H]4[C@@H](O)C[C@]3(C)[C@]2(C(=O)COC(=O)c2ccc(COC(=O)OC(C)O[N+](=O)[O-])cc2)O1 (some centres unmarked) [I-HD4-L20-R1] |  | Non-mutagenic with TA 1535 | Non-toxic | 
11 | COc1ccc2cc([C@H](C)C(=O)O)ccc2c1 [Naproxen, naproxen, reference compound] |  |  |  | Gastric ulcers (Mean ± SEM) (mm^2) @ 100 mg/kg eq. @ 5 hours (rats): 75 ± 13 mm^2; Ulcer development (in words) (rats): severe haemorrhagic lesions; Anti-inflammatory activity (% Inhibition) @ 3 hours [2]: 65.45 ± 5.84%; Anti-inflammatory activity (% Inhibition) @ 5 hours [2]: 49.09 ± 10.35%
